Measured values from US20190365673A1, “Immunomodulatory Compounds” (Lankenau Institute for Medical Research, priority 2016, published 2019).
Like-named read-outs stand apart in the source and are kept apart here.

Assays:
[1] = system: WM983B melanoma cells; assay: Cell viability assay (EZQuant), WM983B; type: cell-based; settings: Homo sapiens, AP alone, 72 h
Experimental: (§3) Cell proliferation assays were conducted in 96-well plates at 25-30% starting confluence to determine the effect of exposure to increasing concentrations of PLX4720 or AP with or without 1 mM DFMO for 72 hours. Cell viability was assessed using the EZQuant™ Cell Quantifying Kit (Alstem) in which WST-8 is reduced by the metabolic activity of live cells to formazan dye. […] The 72 hour IC50 values for AP were calculated using non-linear regression (sigmoidal dose response) of the plot of percentage inhibition versus the log of inhibitor concentration in GraphPad Prism (v5; GraphPad Software, Inc., La Jolla, Calif.).

[2] = system: WM3734 melanoma cells; assay: Cell viability assay (EZQuant), WM3734; type: cell-based; settings: Homo sapiens; AP alone, 72 h, WM3734, BRAF V600E
Experimental: as §3

[3] = system: WM989 melanoma cells; assay: Cell viability assay (EZQuant), WM989; type: cell-based; settings: Homo sapiens; AP alone, 72 h, WM989, BRAF V600E
Experimental: as §3

[4] = system: WM88 melanoma cells; assay: Cell viability assay (EZQuant), WM88; type: cell-based; settings: Homo sapiens; AP alone, 72 h, WM88, BRAF V600E
Experimental: as §3

[5] = system: WM3743 melanoma cells; assay: Cell viability assay (EZQuant), WM3743; type: cell-based; settings: Homo sapiens; AP alone, 72 h, WM3743, BRAF WT
Experimental: as §3

[6] = system: WM3211 melanoma cells; assay: Cell viability assay (EZQuant), WM3211; type: cell-based; settings: Homo sapiens; AP alone, 72 h, WM3211, BRAF WT
Experimental: as §3

[7] = system: BRAF^V600E YUMM1.7 melanoma cells; assay: Cell viability assay (EZQuant), YUMM1.7; type: cell-based, murine; settings: FIGS. 9A, 9B, 72 h
Experimental: FIG. 9A: Murine BRAF^V600E YUMM1.7 melanoma cells and BRAF^WT B16F10 melanoma cells were treated with increasing doses of AP. After 72 hours of culture, cell survival was determined via EZQuant™ Cell Quantifying assay. IC50 values were calculated by GraphPad Prism 6. FIG. 9B: Murine BRAF^V600E YUMM1.7 melanoma cells and BRAF^WT B16F10 melanoma cells were treated with increasing doses of AP±1 mM DFMO or with PLX4720. After 72 hours of culture, cell survival was determined via EZQuant™ Cell Quantifying assay. IC50 values were calculated by GraphPad Prism 6. […] Cells were washed with cold PBS containing 50 μM spermidine, and cell lysates were assayed for CPM ^3H-spermidine per mg protein by scintillation counting.

[8] = system: B16F10-BRAF^V600E cells; assay: Cell viability assay, B16F10-BRAF V600E; settings: Mus musculus, read-out: IC50 (cytotoxicity)
Experimental: (§1) Cell proliferation assays were conducted in 96-well plates at 25-30% starting confluence to determine the effect of exposure to increasing concentrations of PLX4720 or AP with or without 1 mM DFMO for 72 hours. Cell viability was assessed using the EZQuant™ Cell Quantifying Kit (Alstem) in which WST-8 is reduced by the metabolic activity of live cells to formazan dye. For spheroids treated with PLX4720 and/or AP, viability of the spheroid cells was estimated by quantification of the ATP present using a CellTiter-Glo Luminescent Cell Viability Assay (Promega Co., Madison, Wis.). The 72 hour IC50 values for AP were calculated using non-linear regression (sigmoidal dose response) of the plot of percentage inhibition versus the log of inhibitor concentration in GraphPad Prism (v5; GraphPad Software, Inc., La Jolla, Calif.).

[9] = system: B16F10-pBABE cells; assay: Cell viability assay, B16F10-pBABE; settings: Mus musculus, read-out: IC50 (cytotoxicity)
Experimental: as §1

[10] = system: 1205Lu melanoma spheroids; assay: 3D spheroid culture viability (CellTiter-Glo); type: cell-based, human; settings: FIG. 10, 25 μM each drug, 48 h, 3D spheroids on NCPs
Experimental: (§2) BRAF^V600E mutant 1205Lu melanoma cells were seeded at 1×10^4 cells in each well of the […] NCPs. When spheroids were formed on day 3, the 3D cultures of spheroids were treated with PLX4720 (25 μM) and/or AP (25 μM). 2D monolayer cultures of 1205Lu melanoma cells were also treated with PLX4720 (25 μM) and/or AP (25 μM). After drug treatment for 48 hours, the viability of spheroids and monolayer cultures was assayed using the CellTiter-Glo Luminescent Cell Viability Assay. The percent cell survival in each treatment group was calculated relative to cells treated with medium only under the same conditions. As controls, the growth of cells without drug treatment under each condition was normalized as 100% separately. The means are presented±SD.
The inorganic nanoscale scaffolding NanoCulture plates (NCP) were purchased from SCIVAX. The base of each NCP is constructed with a transparent cyclo-olefin resinous sheet with a nanoscale indented pattern. To form spheroids, 1205Lu human melanoma cells were seeded in 96-well NCPs at 1×10^4 cells/well in MCDB153 (Sigma)/Leibovitz's L-15 (Cellgro) medium (4:1 ratio) supplemented with 2% heat-inactivated fetal calf serum and 2 mM CaCl2 and incubated in a conventional cell incubator at 37° C. in an atmosphere of 5% CO2 and normal O2 levels. […]

[11] = system: 1205Lu melanoma monolayer cultures; assay: 2D monolayer culture viability (CellTiter-Glo); type: cell-based, human; settings: FIG. 10, 25 μM each drug, 48 h
Experimental: as §2

[12] = system: BRAF-mutant melanoma tumor; assay: BRAF-mutant melanoma tumor in mice treated with PLX4720; type: in vivo; settings: FIG. 11, co-treatment with PLX4720, begun when the tumor has regressed
Experimental: FIG. 11 provides a graph of tumor volume in mice over time after treatment with PLX4720 alone or PLX4720 with delayed administration of AP and DFMO.
In addition to the above, the efficacy of AP in vivo was also tested.

[13] = system: CXCR4^+ RAW247.6 macrophage cells; assay: In vitro chemotaxis assay, SDF-1 stimulated migration; type: cell-based
Experimental: The ability to inhibit stromal cell-derived factor 1 (SDF-1) stimulated migration of macrophage was also tested in an in vitro chemotaxis assay. Specifically, CXCR4^+ RAW247.6 macrophage cells were treated with SDF-1α alone or with AMD3100, a specific CXCR4 antagonist which inhibits cell migration and phosphorylation of ERK1/2 by SDF-1, or AP (Formula (II)).

CNCNCNCc1ccc(CNCNCNC)c2ccccc12 [AP]
IC50 ([1]; BRAF V600E, read-out: IC50 (μM AP)): 2.6 µM | IC50 ([1]; FIG. 8C, read-out: IC50): 2.3 µM | IC50 [2]: 2.2 µM | IC50 [3]: 1.2 µM | IC50 [4]: 0.8 µM | IC50 [5]: 8.9 µM | IC50 [6]: 4.5 µM | sensitivity to AP (IC50 compared to BRAF WT B16F10 cells) [7]: significantly more sensitive | IC50 [8]: 24.4 µM | IC50 [9]: 36.4 µM | cell viability of spheroid cultures [10]: similarly sensitive | cell viability of monolayer cultures [11]: similarly sensitive | regrowth of BRAF inhibitor-resistant tumor [12]: significantly retards the regrowth | SDF-1-stimulated migration of CXCR4+ macrophages ([13]; FIG. 13): inhibits | viability of the macrophages ([13]; in the chemotaxis assay): without affecting the viability
